# Source: patent US10633417B2 (priority 2013, dated 2020)
# Tests used:
# human α9α10 nAChR = human α9α10 nAChR (Homo sapiens, UniProt Q9GZZ6+Q9UGM1); test: cell-based; type: cell-based
# Sprague Dawley rats = settings: rat, in vivo
# Sprague-Dawley rats [1] = settings: rat, in vivo
# Sprague-Dawley rats [2] = settings: rat, in vivo; remark: listed apart in the source
# Sprague-Dawley rats [3] = settings: rat, in vivo; remark: listed apart in the source
# Sprague-Dawley rats [4] = settings: rat, in vivo; remark: listed apart in the source
# Sequence of human α9α10 nAChR (Q9UGM1 26-479 limits assumed): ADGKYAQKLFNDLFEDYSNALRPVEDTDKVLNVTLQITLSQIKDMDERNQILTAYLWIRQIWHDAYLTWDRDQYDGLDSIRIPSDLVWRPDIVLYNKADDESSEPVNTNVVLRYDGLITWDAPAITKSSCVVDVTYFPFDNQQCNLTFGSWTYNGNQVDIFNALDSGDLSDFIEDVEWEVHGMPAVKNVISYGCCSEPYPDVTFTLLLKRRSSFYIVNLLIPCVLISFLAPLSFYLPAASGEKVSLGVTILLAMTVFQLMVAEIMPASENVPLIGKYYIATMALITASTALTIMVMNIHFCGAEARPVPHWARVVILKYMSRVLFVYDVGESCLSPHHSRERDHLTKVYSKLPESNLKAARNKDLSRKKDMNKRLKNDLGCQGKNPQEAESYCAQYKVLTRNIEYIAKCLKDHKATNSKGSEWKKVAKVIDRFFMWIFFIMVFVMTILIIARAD
# Sequence of human α9α10 nAChR (Q9GZZ6 25-450 limits assumed): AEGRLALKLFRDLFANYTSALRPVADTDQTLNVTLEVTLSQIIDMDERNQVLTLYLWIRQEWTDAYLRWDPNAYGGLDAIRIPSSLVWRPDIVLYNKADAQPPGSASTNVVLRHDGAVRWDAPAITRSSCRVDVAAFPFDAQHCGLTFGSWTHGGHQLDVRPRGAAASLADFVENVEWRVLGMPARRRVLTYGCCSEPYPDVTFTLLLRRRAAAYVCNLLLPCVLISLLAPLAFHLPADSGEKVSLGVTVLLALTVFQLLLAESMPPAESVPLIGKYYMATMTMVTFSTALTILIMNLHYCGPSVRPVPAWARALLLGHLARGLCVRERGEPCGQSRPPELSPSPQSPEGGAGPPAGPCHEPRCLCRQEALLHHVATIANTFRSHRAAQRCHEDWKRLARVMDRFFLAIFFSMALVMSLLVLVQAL
Compound,Fold improvement (human α9α10 nAChR),IC50 (human α9α10 nAChR),also measured
C[C@@H](O)[C@@H]1NC(=O)[C@@H]2CSSC[C@@H](C(=O)N[C@@H](Cc3c[nH]c4ccccc34)C(=O)O)NC(=O)[C@H](CCC(N)=O)NC(=O)[C@H](Cc3ccc(O)c(I)c3)NC(=O)[C@H](CCCNC(N)=O)NC(=O)[C@H](CSSC[C@H](NC(=O)CN)C(=O)N2)NC(=O)[C@H](CCCNC(=N)N)NC(=O)[C@@H]2CCCN2C(=O)[C@H](CC(=O)O)NC1=O [Analog 8],236 fold,2.09 nM,–
GCCTDPRCRX3QCY [Analog 11],–,–,burn-induced thermal hyperalgesia (Hargraves method) (Sprague Dawley rats): significantly reduced
C[C@@H](O)[C@@H]1NC(=O)[C@@H]2CSSC[C@@H](C(=O)N[C@@H](Cc3ccc(O)cc3)C(=O)O)NC(=O)[C@H](CCC(N)=O)NC(=O)[C@H](Cc3ccc(O)c(I)c3)NC(=O)[C@H](CCCNC(=N)N)NC(=O)[C@H](CSSC[C@H](NC(=O)CN)C(=O)N2)NC(=O)[C@H](CCCNC(=N)N)NC(=O)[C@@H]2CCCN2C(=O)[C@H](CC(=O)O)NC1=O [Analog 11],"1,123 fold",–,–
C[C@@H](O)[C@@H]1NC(=O)[C@@H]2CSSC[C@@H](C(=O)N[C@@H](Cc3ccc(O)cc3)C(=O)N[C@@H](Cc3ccc(O)cc3)C(=O)O)NC(=O)[C@H](CCC(N)=O)NC(=O)[C@H](Cc3ccc(O)c(I)c3)NC(=O)[C@H](CCCNC(N)=O)NC(=O)[C@H](CSSC[C@H](NC(=O)CN)C(=O)N2)NC(=O)[C@H](CCCNC(=N)N)NC(=O)[C@@H]2CCCN2C(=O)[C@H](CC(=O)O)NC1=O [Analog 9],553 fold,0.893 nM,–
C[C@@H](O)[C@@H]1NC(=O)[C@@H]2CSSC[C@@H](C(=O)N[C@@H](CCCNC(=N)N)C(=O)N[C@@H](CCCNC(=N)N)C(=O)N[C@@H](Cc3ccc(O)cc3)C(=O)O)NC(=O)[C@H](CCC(N)=O)NC(=O)[C@H](Cc3ccc(O)c(I)c3)NC(=O)[C@H](CCCNC(N)=O)NC(=O)[C@H](CSSC[C@H](NC(=O)CN)C(=O)N2)NC(=O)[C@H](CCCNC(=N)N)NC(=O)[C@@H]2CCCN2C(=O)[C@H](CC(=O)O)NC1=O [Analog 6],120 fold,4.11 nM,–
GCCTDPRCX2X3QCY [Analog 3],–,–,"prevention of OXA-induced cold allodynia, day 7 (Sprague-Dawley rats [1]): able to prevent OXA-induced cold allodynia; prevention of OXA-induced cold allodynia, day 14 and 21 (Sprague-Dawley rats [1]): able to prevent OXA-induced cold allodynia; potency on the human receptor after further optimization of Analog 2 (human α9α10 nAChR): improved potency; efficacy on mechanical hyperalgesia 24 h after injection (Sprague-Dawley rats [2]): still significant; pain threshold (mechanical hyperalgesia) 30 min after injection (Sprague-Dawley rats [2]): acutely increased pain threshold; prevention of OXA-induced mechanical hyperalgesia (Sprague-Dawley rats [2]): significantly prevented; OXA-induced pain threshold decrease (von Frey), day 7, 30 min (Sprague-Dawley rats [3]): reverted; activity on mechanical allodynia (von Frey), days 14 and 21 (Sprague-Dawley rats [3]): active; analgesic effect (von Frey), day 7, 24 h later (Sprague-Dawley rats [3]): not observed; analgesic effect in OXA chemotherapy induced neuropathic pain (Sprague-Dawley rats [4]): analgesic effect"
C[C@@H](O)[C@@H]1NC(=O)[C@@H]2CSSC[C@@H](C(=O)N[C@@H](Cc3ccc(O)cc3)C(=O)N[C@@H](CCCNC(=N)N)C(=O)O)NC(=O)[C@H](CCC(N)=O)NC(=O)[C@H](Cc3ccc(O)c(I)c3)NC(=O)[C@H](CCCNC(N)=O)NC(=O)[C@H](CSSC[C@H](NC(=O)CN)C(=O)N2)NC(=O)[C@H](CCCNC(=N)N)NC(=O)[C@@H]2CCCN2C(=O)[C@H](CC(=O)O)NC1=O [Analog 10],598 fold,0.826 nM,–
C[C@@H](O)[C@@H]1NC(=O)[C@@H]2CSSC[C@@H](C(=O)N[C@@H](CCCNC(=N)N)C(=O)N[C@@H](CCCNC(=N)N)C(=O)N[C@@H](CCCNC(=N)N)C(=O)O)NC(=O)[C@H](CCC(N)=O)NC(=O)[C@H](Cc3ccc(O)c(I)c3)NC(=O)[C@H](CCCNC(N)=O)NC(=O)[C@H](CSSC[C@H](NC(=O)CN)C(=O)N2)NC(=O)[C@H](CCCNC(=N)N)NC(=O)[C@@H]2CCCN2C(=O)[C@H](CC(=O)O)NC1=O [Analog 4],109 fold,4.55 nM,–
C[C@@H](O)[C@@H]1NC(=O)[C@@H]2CSSC[C@@H](C(=O)N[C@@H](Cc3ccc(O)cc3)C(=O)N[C@@H](CCCNC(=N)N)C(=O)N[C@@H](CCCNC(=N)N)C(=O)O)NC(=O)[C@H](CCC(N)=O)NC(=O)[C@H](Cc3ccc(O)c(I)c3)NC(=O)[C@H](CCCNC(N)=O)NC(=O)[C@H](CSSC[C@H](NC(=O)CN)C(=O)N2)NC(=O)[C@H](CCCNC(=N)N)NC(=O)[C@@H]2CCCN2C(=O)[C@H](CC(=O)O)NC1=O [Analog 5],325 fold,1.52 nM,–
GCCTDPRCX2X3QCRRR [Analog 4],–,–,potency on the human receptor after further optimization of Analog 2 (human α9α10 nAChR): improved potency
"C[C@@H](O)[C@@H]1NC(=O)[C@@H]2C[Se]SC[C@@H](C(=O)N[C@@H](CCCNC(=N)N)C(=O)O)NC(=O)[C@H](CCC(N)=O)NC(=O)[C@H](Cc3ccc(O)c(I)c3)NC(=O)[C@H](CCCNC(N)=O)NC(=O)[C@H](CS[Se]C[C@H](NC(=O)CN)C(=O)N2)NC(=O)[C@H](CCCNC(=N)N)NC(=O)[C@@H]2CCCN2C(=O)[C@H](CC(=O)O)NC1=O [SEQ ID NO:20, GX4X4TDPRCX2X3QCR]",5.7 fold,–,fold increase in potency on the human receptor (human α9α10 nAChR): 10 fold
C[C@@H](O)[C@@H]1NC(=O)[C@@H]2CSSC[C@@H](C(=O)N[C@@H](Cc3ccccc3)C(=O)O)NC(=O)[C@H](CCC(N)=O)NC(=O)[C@H](Cc3ccc(O)c(I)c3)NC(=O)[C@H](CCCNC(N)=O)NC(=O)[C@H](CSSC[C@H](NC(=O)CN)C(=O)N2)NC(=O)[C@H](CCCNC(=N)N)NC(=O)[C@@H]2CCCN2C(=O)[C@H](CC(=O)O)NC1=O [Analog 7],470 fold,1.05 nM,–
